From patent US9428447B2, “Bis-(aryl/heteroaryl)-methylene compounds, pharmaceutical compositions containing same and their use for treating cancer” (The Royal Institution For The Advancement of …, priority 2011, dated 2016)
Values belong to the compound of their own block, whether it stands above or below them.

Legend:
VDR [1] = molecular target: T1, VDR (Homo sapiens (Human), UniProt P11473); experiment: VDR agonism: induction of CYP24 gene expression in SCC25 cells (RT/PCR); assay type: cell-based; details: for VDR agonism by induction of CYP24 gene expression (screen): test compounds 10 μM, FIG. 1a; for VDR agonist activity/potency (CYP24 induction, dose response): 1d; for induction of CYP24 by the compound blocked (consistent with binding to the VDR): FIG. 1c
Description: RNA isolation and RT/PCR analysis. PCR primers against CYP24 (forward, 5',5'-[NT], reverse, 5'-[NT] designed using Primer3 software as described and used in […]-Mendoza, Quach, T., Dabbas, B., Hudon, J., Liao, X., Palijan, A., Gleason, J. L., and White, J. H. (2008) Incorporation of histone deacetylase inhibition into the structure of a nuclear receptor agonist. Proc. Nat. Acad. Sci. […] After treatment, cells were washed with PBS, homogenized with 1 ml TRIzol Reagent (Invitrogen, Carlsbad, Calif.), kept at room temperature for 2-5 min, collected and kept at -80° C. for at least 1 h. After, thawing 0.2 ml chloroform was added. After vigorous mixing and storing for 10 min, mixtures were centrifuged (10,000 rpm, 15 min, 4° C.) and the upper transparent layer was transferred to a new tube. 0.5 ml isopropanol was added and the new solution was mixed. After centrifuging at 4° C., the supernatant was discarded and 1 ml of 75% ethanol was added. After centrifuging and discarding the supernatant, the pellet was air-dried for 5-10 min, and then dissolved in ddH2O. RNA concentrations were measured using a spectrophotometer, and 1-3 μg of RNA were loaded for reverse transcriptase reactions (total volume: 20 μl). 80 μl of ddH2O was added to the RT-product, and 1.5 μl of that was used as template for the PCR reaction. Reverse transcriptase (Super Script II) was purchased from Invitrogen (Carlsbad, Calif.). DNA polymerase and dNTP's were ordered from Fermentas (Glen Burnie, Md.).

VDR [2] = molecular target: T1, VDR; experiment: Chromatin immunoprecipitation (ChIP) assay, CYP24 promoter, SCC25 cells; assay type: cell-based; details: FIG. 1e
Description: Chromatin immunoprecipitation assays. ChIP assays were performed with sonicated extracts of SCC25 cells as described (see Wang, T.-T. et al. J Immunol (2004) 173:2909-2912). […] Immunoprecipitations were performed using normal rabbit IgG, anti-VDR antibody (c-20) (Santa Cruz Biotechnology, Santa Cruz, Calif.). […].

[3] = molecular target: VDR ligand binding domain (Homo sapiens (Human), UniProt P11473); experiment: Fluorescence polarization (FP) competition assay; details: 0.5 nM fluorescent tracer
Description: Fluorescence polarization (FP) competition assay. The assay was performed using a vitamin D receptor competitor assay kit (Polarscreen, Invitrogen, Carlsbad, Calif.) set up using 0.5 nM fluorescent tracer. The assay measures the decrease in FP accompanying loss of binding to the relatively high molecular weight VDR ligand binding domain of the fluorescent tracer due to the presence of a competitor. FP was measured using an Analyst HT fluorimeter (Molecular Devices) configured with absorption and emissions filters as recommended by the kit manufacturers. Dose response curves and IC50 determination were determined using XLfit (IDBS) Sigmoidal Dose-Response Model [fit=(A+((B−A)/(1+((C/x)^D)))); inv=(C/((((B−A)/(y−A))−1)^(1/D))); res=(y−fit)].

SCC4 cells [4] = experiment: MTS cell proliferation assay, SCC4; assay type: cell-based, human; details: vitamin D resistant SCC4 cells; FIGS. 7c, 8 and 9
Description: Dose-dependent effects of compounds on cell cycle progression was monitored using a CellTiter 96 Aqueous Non-Radioactive Cell Proliferation Assay Kit (Promega). The assay composed of solutions of a novel tetrazolium compound (MTS) and an electron coupling reagent (phenazine methosulfate; PMS). MTS is reduced by metabolically active cells into a soluble formazan product that absorbs at 490 nm. The quantity of formazan product absorbing at 490 nm is directly proportional to the number of living cells.

SCC4 cells [5] = experiment: EdU cell growth assay, SCC4; details: 1,25D-resistant SCC4 cells; FIG. 2e, f
Description: (§2) EdU Cell Growth Assay. Click-iT EdU Alexa Fluor high-throughput imaging (HCS) assay for cell proliferation. HCS assays were performed on AT84 mouse squamous carcinoma cell line (ATCC) following the manufacturer's instruction (Molecular Probes, Invitrogen). […] All samples were in triplicate.

SCC4 cells [6] = experiment: LDH cytotoxicity assay, SCC4; assay type: cell-based, human; details: vitamin D resistant SCC4 cells; FIGS. 10 and 11
Description: The cytotoxic effects of compounds were screened using a Cytotoxicity Assay Kit (Cayman Chemical), which measures release of the soluble […] enzyme lactate dehydrogenase (LDH) from dying cells into the culture medium using a coupled two-step reaction. LDH in the media catalyzes the reduction of NAD+ to NADH and H+ by oxidation of lactate to pyruvate. LDH-catalyzed NADH production is then measured by following diaphorase catalyzed NADH-dependent reduction of a tetrazolium salt (INT) to highly-colored formazan which absorbs strongly at 490-520 nm.

[7] = system: total intracellular HDAC activity; experiment: HDACi activity with fluorogenic substrate in live SCC25 cells; assay type: cell-based, human; details: increasing concentration, FIG. 2a, b
Description: (§1) This assay measures the inhibition of total intracellular HDAC activity and determines the capacity of compounds to inhibit HDACs in the form of their naturally occurring complexes.

[8] = system: total intracellular HDAC activity; experiment: HDACi activity with fluorogenic substrate in live SCC4 cells; assay type: cell-based, human; details: increasing concentration, FIG. 2a, b
Description: as §1

[9] = system: 60 cell panel of human carcinoma cell lines; experiment: National Cancer Institute 60 cell panel (overall); assay type: cell-based
IGROV1 = experiment: NCI 60 cell panel: IGROV1; assay type: cell-based; details: Ovarian Cancer
AT84 cells = experiment: EdU cell growth assay, AT84
Description: as §2

SCC25 cells = experiment: EdU cell growth assay, SCC25
Description: as §2

T1 sequence (P11473 whole entry): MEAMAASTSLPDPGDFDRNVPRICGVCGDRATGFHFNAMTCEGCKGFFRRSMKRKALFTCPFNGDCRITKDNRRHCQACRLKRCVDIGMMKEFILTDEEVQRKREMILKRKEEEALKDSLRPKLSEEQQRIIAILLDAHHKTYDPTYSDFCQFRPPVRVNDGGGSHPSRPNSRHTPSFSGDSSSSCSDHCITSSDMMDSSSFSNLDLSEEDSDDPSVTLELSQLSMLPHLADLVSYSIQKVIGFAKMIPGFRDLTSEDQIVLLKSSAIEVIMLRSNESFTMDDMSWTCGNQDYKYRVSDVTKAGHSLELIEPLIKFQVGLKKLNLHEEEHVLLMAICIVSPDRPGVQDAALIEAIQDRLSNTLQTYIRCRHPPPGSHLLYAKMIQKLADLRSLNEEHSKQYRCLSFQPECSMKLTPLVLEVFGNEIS
Sequence of VDR ligand binding domain (P11473 127-423): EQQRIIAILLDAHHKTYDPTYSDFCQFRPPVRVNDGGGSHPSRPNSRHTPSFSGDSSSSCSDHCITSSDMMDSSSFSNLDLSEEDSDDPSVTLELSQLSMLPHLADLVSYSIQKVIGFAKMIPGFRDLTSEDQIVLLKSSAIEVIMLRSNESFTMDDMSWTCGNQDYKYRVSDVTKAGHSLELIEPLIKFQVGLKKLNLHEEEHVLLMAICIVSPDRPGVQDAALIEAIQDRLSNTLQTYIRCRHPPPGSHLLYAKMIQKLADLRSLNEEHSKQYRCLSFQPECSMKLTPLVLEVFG

VDR agonism by induction of CYP24 gene expression (screen) (VDR [1]): completely inactive as VDR agonists
Structure (SMILES): CCC(CC)(c1ccc(OCCO)c(C)c1)c1ccc(OCC(=O)NO)c(C)c1 [JF-B52, N-Hydroxy-2-(4-(3-(4-(2-hydroxyethoxy)-3-methylphenyl)pentan-3-yl)-2-methylphenoxy)acetamide]

VDR agonist activity/potency (CYP24 induction, dose response) (VDR [1]; FIG. 1b): VDR agonists with similar potencies
IC50 [3]: ~35 nM
Structure (SMILES): CCC(CC)(c1ccc(OCC(=O)NO)c(C)c1)c1ccc(OC[C@@H](O)C(C)(C)C)c(C)c1 [JF-C72]
binding of the VDR to the vitamin D response element in the proximal promoter of the CYP24 gene (ChIP) (VDR [2]): induced binding of the VDR to the vitamin D response element
antiproliferative potency (MTS) (SCC4 cells [4]): low micromolar potency

Structure (SMILES): CCC(CC)(c1ccc(OCC(O)CO)c(C)c1)c1ccc(OCC(O)C(C)(C)C)c(C)c1 (stereo not drawn) [LG190178]
inhibition of proliferation (EdU incorporation) (SCC4 cells [5]): failed to block SCC4 proliferation

Structure (SMILES): CCC(CC)(c1ccc(OCC(O)C(C)(C)C)c(C)c1)c1c[nH]c2cc(CCC(=O)NO)ccc12 (stereo not drawn) [DK-222]
antiproliferative potency (MTS) (SCC4 cells [4]): low micromolar potency
cytotoxicity (LDH release) (SCC4 cells [6]): good cytotoxicity

Structure (SMILES): CCC(O)(CC)COc1ccc(C(CC)(CC)c2ccc(OCC(=O)NO)c(C)c2)cc1C [JF-B54, 2-(4-(3-(4-(2-Ethyl-2-hydroxybutoxy)-3-methylphenyl)pentan-3-yl)-2-methylphenoxy)-N-hydroxyacetamide]
VDR agonist activity/potency (CYP24 induction, dose response) (VDR [1]; FIG. 1b): showed VDR agonist activity, but with reduced potency
induction of CYP24 by the compound blocked (consistent with binding to the VDR) (VDR [1]): blocked
inhibition of total intracellular HDAC activity (substrate deacetylation) [7]: the most potent
inhibition of total intracellular HDAC activity (substrate deacetylation) [8]: the most potent

VDR agonism by induction of CYP24 gene expression (screen) (VDR [1]): completely inactive as VDR agonists
Structure (SMILES): CCC(CC)(c1ccc(OCC(=O)NO)c(C)c1)c1ccc(OCC(=O)NO)c(C)c1 [JF-B06]

Structure (SMILES): CCC(CC)(c1ccc(OCCCC(=O)NO)c(C)c1)c1ccc(OC[C@H](O)C(C)(C)C)c(C)c1 [JFD-15]
antiproliferative potency (MTS) (SCC4 cells [4]): low micromolar potency

Structure (SMILES): CCC(CC)(c1ccc(OCC(O)C(C)(C)C)c(C)c1)c1cc(C)c(CCC(=O)NO)s1 (stereo not drawn) [DK-178, N-hydroxy-3-(5-(3-(4-(2-hydroxy-3,3-dimethylbutoxy)-3-methylphenyl)pentan-3-yl)-3-methylthiophen-2-yl)propanamide]
antiproliferative potency (MTS) (SCC4 cells [4]): low micromolar potency

Structure (SMILES): CCC(CC)(c1ccc(OCCCCCC(=O)NO)cc1)c1ccc(OCC(O)C(C)(C)C)c(C)c1 (stereo not drawn) [DK-367]
antiproliferative potency (MTS) (SCC4 cells [4]): low micromolar potency

Structure (SMILES): CCC(CC)(c1ccc(OCC(O)C(C)(C)C)c(C)c1)c1ccc(OCC(=O)NO)c(Br)c1 (stereo not drawn) [DK-309, 2-(2-bromo-4-(3-(4-(2-hydroxy-3,3-dimethylbutoxy)-3-methylphenyl)pentan-3-yl)phenoxy)-N-hydroxyacetamide]
cytotoxicity (LDH release) (SCC4 cells [6]): good cytotoxicity

VDR agonism by induction of CYP24 gene expression (screen) (VDR [1]): completely inactive as VDR agonists
Structure (SMILES): CCC(CC)(c1ccc(OCC(=O)NO)c(C)c1)c1ccc(OCC(O)CO)c(C)c1 (stereo not drawn) [JF-B40]

Structure (SMILES): CCC(CC)(c1ccc(OCC(=O)NO)c(C)c1)c1ccc(OC[C@H](O)C(C)(C)C)c(C)c1 [JF-C71, N-Hydroxy-2-(4-(3-(4-((2R)-hydroxy-3,3-dimethylbutoxy)-3-methylphenyl)pentan-3-yl)-2-methylphenoxy)acetamide]
VDR agonist activity/potency (CYP24 induction, dose response) (VDR [1]; FIG. 1b): VDR agonists with similar potencies
binding of the VDR to the vitamin D response element in the proximal promoter of the CYP24 gene (ChIP) (VDR [2]): induced binding of the VDR to the vitamin D response element
IC50 [3]: ~100 nM
antiproliferative potency (MTS) (SCC4 cells [4]): low micromolar potency

VDR agonism by induction of CYP24 gene expression (screen) (VDR [1]): showed some agonist activity
Structure (SMILES): CCC(CC)(c1ccc(OCC(=O)O)c(C)c1)c1ccc(OCC(=O)C(C)(C)C)c(C)c1 [JF-C11]

Structure (SMILES): CCC(CC)(c1ccc(OCC(=O)NO)cc1)c1ccc(OCC(O)C(C)(C)C)c(C)c1 (stereo not drawn) [DK-366, N-hydroxy-2-(4-(3-(4-(2-hydroxy-3,3-dimethylbutoxy)-3-methylphenyl)pentan-3-yl)phenoxy)acetamide]
antiproliferative potency (MTS) (SCC4 cells [4]): low micromolar potency
cytotoxicity (LDH release) (SCC4 cells [6]): good cytotoxicity

Structure (SMILES): CCC(CC)(c1ccc(OCC(O)C(C)(C)C)c(C)c1)c1cn(C)c2cc(CCC(=O)NO)ccc12 (stereo not drawn) [DK-234, N-hydroxy-3-(3-(3-(4-(2-hydroxy-3,3-dimethylbutoxy)-3-methylphenyl)pentan-3-yl)-1-methyl-1H-indol-6-yl)propanamide]
antiproliferative potency (MTS) (SCC4 cells [4]): low micromolar potency

Structure (SMILES): CCC(CC)(c1ccc(OCC(=O)NO)c(C)c1)c1ccc(OCC(=O)C(C)(C)C)c(C)c1 [JF-B59, 2-(4-(3-(4-(3,3-dimethyl-2-oxobutoxy)-3-methylphenyl)pentan-3-yl)-2-methylphenoxy)-N-hydroxyacetamide]
VDR agonist potency relative to JF-B01 (fold lower) (VDR [1]; FIG. 1b): > 10 fold

Structure (SMILES): CCC(CC)(c1ccc(CCC(=O)NO)c(C)c1)c1ccc(OC[C@H](O)C(C)(C)C)c(C)c1 [JFD-50]
antiproliferative potency (MTS) (SCC4 cells [4]): low micromolar potency

VDR agonism by induction of CYP24 gene expression (screen) (VDR [1]): completely inactive as VDR agonists
Structure (SMILES): CCC(CC)(c1ccc(OCC(=O)NO)c(C)c1)c1ccc(OCC(CO)CO)c(C)c1 [JF-B21]

induction of CYP24 by the compound blocked (consistent with binding to the VDR) (VDR [1]): blocked
Structure (SMILES): CCC(CC)(c1ccc(OCC(=O)NO)c(C)c1)c1ccc(OCC(C)(C)O)c(C)c1 [JF-B53, N-Hydroxy-2-(4-(3-(4-(2-hydroxy-2-methylpropoxy)-3-methylphenyl)pentan-3-yl)-2-methylphenoxy)acetamide]
VDR agonist activity/potency (CYP24 induction, dose response) (VDR [1]; FIG. 1b): showed VDR agonist activity, but with reduced potency

Structure (SMILES): CCC(CC)(c1ccc(OCC(=O)NO)c(C)c1)c1ccc(OCC(O)C(C)(C)C)c(C)c1 (racemic) [JF-B01, N-Hydroxy-2-(4-(3-(4-(2-hydroxy-3,3-dimethylbutoxy)-3-methylphenyl)pentan-3-yl)-2-methylphenoxy)acetamide]
VDR agonist potency relative to 1,25D (fold lower) (VDR [1]; FIG. 1b): approximately 10 fold
VDR agonist potency relative to LG190178 (VDR [1]; FIG. 1b): equal to or greater than that of LG190178
VDR agonist activity/potency (CYP24 induction, dose response) (VDR [1]; FIG. 1b): efficacious agonist
induction of CYP24 by the compound blocked (consistent with binding to the VDR) (VDR [1]): blocked
VDR agonism by induction of CYP24 gene expression (screen) (VDR [1]): showed any agonist activity against VDR
antiproliferative potency (MTS) (SCC4 cells [4]): low micromolar potency
antiproliferative activity in the 60 cell panel ([9]; all cell lines): displayed antiproliferative activity in all cell lines
full growth inhibition concentration ([9]; melanoma cell lines, 8 out of 9 cell lines): ≤ 7 µM
TGI (IGROV1): 5.25E−6
antiproliferative potency relative to 1,25D (fold less potent) (AT84 cells): 10 fold
antiproliferative potency relative to 1,25D (fold less potent) (SCC25 cells): 10 fold
